Laboratory results from US11155520B2, “Picolinamides as fungicides” (Dow AgroSciences LLC, priority 2018, dated 2021).

How the values were obtained:
Assay type in all cases: in vivo
[1] = tested on: Phakopsora pachyrhizi; test: Fungicidal activity: Asian soybean rust (PHAKPA); settings: High volume, 25 ppm; for PHAKPA 1DP disease control: 1 Day Protectant; for PHAKPA 3DC disease control: 3 Day Curative
Method: Technical grades of materials were dissolved in acetone, which were then mixed with nine volumes of water containing 0.011% Tween 20. The fungicide solutions were applied onto soybean seedlings using an automated booth sprayer to run-off. All sprayed plants were allowed to air dry prior to further handling.
Soybean plants (variety Williams 82) were grown in soil-less Metro mix, with one plant per pot. Two week old seedlings were used for testing. Plants were inoculated either 3 days prior to or 1 day after fungicide treatments. Plants were incubated for 24 h in a dark dew room at 22° C. and 100% relative humidity then transferred to a growth room at 23° C. for disease to develop. Disease severity was assessed on the sprayed leaves.

[2] = tested on: Alternaria solani; test: Fungicidal activity: tomato early blight (ALTESO); settings: 1DP test at 100 ppm
Method: Technical grades of materials were dissolved in acetone, which were then mixed with nine volumes of water containing 110 ppm Triton X-100. The fungicide solutions were applied onto wheat seedlings using an automated booth sprayer to run-off. All sprayed plants were allowed to air dry prior to further handling. All fungicides were evaluated using the aforementioned method for their activity vs. all target diseases, unless stated otherwise. Wheat leaf blotch and brown rust activity were also evaluated using track spray applications, in which case the fungicides were formulated as EC formulations, containing 0.1% Trycol 5941 in the spray solutions. Tomato plants (variety Outdoor Girl) were propagated in soil-less Metro mix, with each pot having one plant, and used when 12 to 14 days old. Test plants were inoculated with an aqueous spore suspension of Alternaria solani 24 hr after fungicide treatments. After inoculation the plants were kept in 100% relative humidity (one day in a dark dew chamber followed by two to three days in a lighted dew chamber at 20° C.) to permit spores to germinate and infect the leaf. The plants were then transferred to a growth room at 22° C. for disease to develop. Fungicide formulation, application and disease assessment on the sprayed leaves followed the procedures as described in the Example A.

[3] = tested on: Cercospora beticola; test: Fungicidal activity: leaf spot of sugar beets (CERCBE); settings: 1DP test at 100 ppm, sugar beet
Method: Technical grades of materials were dissolved in acetone, which were then mixed with nine volumes of water containing 110 ppm Triton X-100. The fungicide solutions were applied onto wheat seedlings using an automated booth sprayer to run-off. All sprayed plants were allowed to air dry prior to further handling. All fungicides were evaluated using the aforementioned method for their activity vs. all target diseases, unless stated otherwise. Wheat leaf blotch and brown rust activity were also evaluated using track spray applications, in which case the fungicides were formulated as EC formulations, containing 0.1% Trycol 5941 in the spray solutions. Sugar beet plants (variety HH88) were grown in soil-less Metro mix and trimmed regularly to maintain a uniform plant size prior to test. Plants were inoculated with a spore suspension 24 hr after fungicide treatments. Inoculated plants were kept in a dew chamber at 22° C. for 48 hr then incubated in a greenhouse set at 24° C. under a clear plastic hood with bottom ventilation until disease symptoms were fully expressed. Fungicide formulation, application and disease assessment on the sprayed leaves followed the procedures as described in the Example A.

[4] = tested on: Glomerella lagenarium; Anamorph: Colletotrichum lagenarium; test: Fungicidal activity: cucumber anthracnose (COLLLA); settings: 1DP test at 100 ppm
Method: Technical grades of materials were dissolved in acetone, which were then mixed with nine volumes of water containing 110 ppm Triton X-100. The fungicide solutions were applied onto wheat seedlings using an automated booth sprayer to run-off. All sprayed plants were allowed to air dry prior to further handling. All fungicides were evaluated using the aforementioned method for their activity vs. all target diseases, unless stated otherwise. Wheat leaf blotch and brown rust activity were also evaluated using track spray applications, in which case the fungicides were formulated as EC formulations, containing 0.1% Trycol 5941 in the spray solutions. Cucumber seedlings (variety Bush Pickle) were propagated in soil-less Metro mix, with each pot having one plant, and used in the test when 12 to 14 days old. Test plants were inoculated with an aqueous spore suspension of Colletotrichum lagenarium 24 hr after fungicide treatments. After inoculation the plants were kept in a dew room at 22° C. with 100% relative humidity for 48 hr to permit spores to germinate and infect the leaf. The plants were then transferred to a growth room set at 22° C. for disease to develop. Fungicide formulation, application and disease assessment on the sprayed leaves followed the procedures as described in the Example A.

[5] = tested on: Parastagonospora nodorum; test: Fungicidal activity: wheat glume blotch (LEPTNO); settings: 1DP test at 100 ppm
Method: Technical grades of materials were dissolved in acetone, which were then mixed with nine volumes of water containing 110 ppm Triton X-100. The fungicide solutions were applied onto wheat seedlings using an automated booth sprayer to run-off. All sprayed plants were allowed to air dry prior to further handling. All fungicides were evaluated using the aforementioned method for their activity vs. all target diseases, unless stated otherwise. Wheat leaf blotch and brown rust activity were also evaluated using track spray applications, in which case the fungicides were formulated as EC formulations, containing 0.1% Trycol 5941 in the spray solutions. Wheat plants (variety Yuma) were grown from seed in a greenhouse in 50% mineral soil/50% soil-less Metro mix until the first leaf was fully emerged, with 7-10 seedlings per pot. These plants were inoculated with an aqueous spore suspension of Parastagonospora nodorum 24 hr after fungicide treatments. After inoculation the plants were kept in 100% relative humidity (one day in a dark dew chamber followed by two days in a lighted dew chamber at 20° C.) to permit spores to germinate and infect the leaf. The plants were then transferred to a greenhouse set at 20° C. for disease to develop. Fungicide formulation, application and disease assessment followed the procedures as described in the Example A.

[6] = tested on: Pseudoperonospora cubensis; test: Fungicidal activity: cucumber downy mildew (PSPECU); settings: 1DP test at 100 ppm
Method: Technical grades of materials were dissolved in acetone, which were then mixed with nine volumes of water containing 110 ppm Triton X-100. The fungicide solutions were applied onto wheat seedlings using an automated booth sprayer to run-off. All sprayed plants were allowed to air dry prior to further handling. All fungicides were evaluated using the aforementioned method for their activity vs. all target diseases, unless stated otherwise. Wheat leaf blotch and brown rust activity were also evaluated using track spray applications, in which case the fungicides were formulated as EC formulations, containing 0.1% Trycol 5941 in the spray solutions. Cucumber seedlings (variety Bush Pickle) were grown in soil-less Metro mix, with one plant per pot, and used in the test when 12 to 14 days old. Plants were inoculated with a spore suspension 24 hr following fungicide treatments. Test plants were inoculated with an aqueous spore suspension of Pseudoperonospora cubensis 24 hr after fungicide treatments. After inoculation the plants were kept in a dew room at 22° C. with 100% relative humidity for 24 hr to permit spores to germinate and infect the leaf. The plants were then transferred to a greenhouse set at 20° C. until disease was fully expressed. Fungicide formulation, application and disease assessment on the sprayed leaves followed the procedures as described in the Example A.

[7] = tested on: Magnaporthe grisea; Anamorph: Pyricularia oryzae; settings: 1DP test at 100 ppm, rice
[8] = tested on: Rhyncosporium secalis; test: Fungicidal activity: barley scald (RHYNSE); settings: 1DP test at 100 ppm
Method: Technical grades of materials were dissolved in acetone, which were then mixed with nine volumes of water containing 110 ppm Triton X-100. The fungicide solutions were applied onto wheat seedlings using an automated booth sprayer to run-off. All sprayed plants were allowed to air dry prior to further handling. All fungicides were evaluated using the aforementioned method for their activity vs. all target diseases, unless stated otherwise. Wheat leaf blotch and brown rust activity were also evaluated using track spray applications, in which case the fungicides were formulated as EC formulations, containing 0.1% Trycol 5941 in the spray solutions. Barley seedlings (variety Harrington) were propagated in soil-less Metro mix, with each pot having 8 to 12 plants, and used in the test when first leaf was fully emerged. Test plants were inoculated by an aqueous spore suspension of Rhyncosporium secalis 24 hr after fungicide treatments. After inoculation the plants were kept in a dew room at 20° C. with 100% relative humidity for 48 hr. The plants were then transferred to a greenhouse set at 20° C. for disease to develop. Fungicide formulation, application and disease assessment on the sprayed leaves followed the procedures as described in the Example A.

[9] = tested on: Uncinula necator; test: Fungicidal activity: grape powdery mildew (UNCINE); settings: 1DP test at 100 ppm
Method: Technical grades of materials were dissolved in acetone, which were then mixed with nine volumes of water containing 110 ppm Triton X-100. The fungicide solutions were applied onto wheat seedlings using an automated booth sprayer to run-off. All sprayed plants were allowed to air dry prior to further handling. All fungicides were evaluated using the aforementioned method for their activity vs. all target diseases, unless stated otherwise. Wheat leaf blotch and brown rust activity were also evaluated using track spray applications, in which case the fungicides were formulated as EC formulations, containing 0.1% Trycol 5941 in the spray solutions. Grape seedlings (variety Carignane) were grown in soil-less Metro mix, with one plant per pot, and used in the test when approximately 1 month old. Plants were inoculated 24 hr after fungicide treatment by shaking spores from infected leaves over test plants. Plants were maintained in a greenhouse set at 20° C. until disease was fully developed. Fungicide formulation, application and disease assessment on sprayed leaves followed the procedures as described in the Example A.

Structure (SMILES)	PHAKPA 1DP disease control [1]	PHAKPA 3DC disease control [1]	ALTESO disease control [2]	CERCBE disease control [3]	COLLLA disease control [4]	LEPTNO disease control [5]	PSPECU disease control [6]	PYRIOR disease control [7]	RHYNSE disease control [8]	UNCINE disease control [9]
COc1ccnc(C(=O)NCC(=O)O[C@@H](C)[C@H](C)c2ccc(F)cc2C)c1OC(=O)C(C)C [Example 197]	D (≤0)	D (≤0)								
COc1ccnc(C(=O)N[C@@H](C)C(=O)O[C@H](C)[C@@H](C)c2ccccc2C)c1OC(=O)C(C)C [Example 225]	D (≤0)									
COc1ccnc(C(=O)N[C@@H](C)C(=O)O[C@@H](C)[C@@H](C)c2ccccc2C)c1OC(C)=O [Example 264]			B (≤80)	A (>80)	B (≤80)	A (>80)	B (≤80)	A (>80)	B (≤80)	A (>80)
COc1ccnc(C(=O)N[C@H](C(=O)O[C@@H](C)[C@H](C)c2ccc(F)cc2C)C(C)C)c1OC(=O)C(C)C [Example 210]		D (≤0)								
COc1ccnc(C(=O)N[C@@H](C)C(=O)O[C@H](C)[C@H](C)c2ccccc2C)c1OC(C)=O [Example 263]			B (≤80)	B (≤80)	D (≤0)	B (≤80)	B (≤80)	B (≤80)	B (≤80)	A (>80)
COc1ccnc(C(=O)N[C@H](C(=O)O[C@H](C)[C@H](C)c2ccc(F)cc2C)C(C)C)c1OC(=O)C(C)C [Example 214]	B (≤80)									
COc1ccnc(C(=O)N[C@@H](C)C(=O)O[C@@H](C)[C@@H](C)c2ccccc2C)c1OC(=O)C(C)C [Example 266]			B (≤80)	B (≤80)	D (≤0)	A (>80)	D (≤0)	A (>80)	B (≤80)	A (>80)
